Results taken from patent publication US20250249001A1, “METHODS OF TREATING SUBSTANCE USE DISORDER WITH 4-(3-CYANOPHENYL)-6-PYRIDINYLPYRIMIDINE MGLU5 NEGATIVE ALLOSTERIC MODULATORS” (Tempero Bio, Inc., priority 2022, published 2025).

Experiments:
[1] = tested on: voluntary home-cage alcohol drinking by Wistar rats; test: Home-cage alcohol drinking, repeated treatment (A-B-A design); assay type: in vivo
Protocol: Home-cage alcohol drinking method. Oral alcohol and water intake were examined using a two-bottle choice protocol, which is standard in the field and commonly used in our laboratory. Male Wistar rats (n=12) were first adapted to drinking from a 50 ml conical tube fitted with a standard stainless-steel ball bearing sipper tube that limits spillage. Then, two bottles were place on the cage daily. One bottle contained an alcohol solution and the other contained water. Bottles containing fresh solutions were weighed daily before and after a 24 hr access period. After drug treatment, bottles were weighed after 1 hr and 24 hrs of access. Each week, rats had 4-5 days of sweetened alcohol and water available and the remaining days only water.
Briefly, rats were first exposed to alcohol (10% v/v)+sucrose (5% w/v). versus water in the two bottles. Then, over a period of 6-weeks, the concentrations of alcohol and sucrose were gradually adjusted to alcohol (8% v/v)+sucrose (2% w/v) to achieve intake of pharmacologically relevant doses of alcohol. Rats were maintained at this concentration for the duration of the experiment for both acute (3.1.a) and chronic (3.1.b) home-cage drinking studies. Use of sweetened alcohol solutions in preclinical research provides face validity to the binge-intoxication stage of alcohol addiction in humans where sweeteners are commonly added to alcohol.
Repeated treatment with Compound 1. To evaluate effects of repeated treatment with Compound 1 on home-cage alcohol drinking, baseline intake of sweetened alcohol and water, and habituation to i.p. injections was conducted as described above in a separate group of male Wistar rats (n=12). During habituation to i.p. injections, rats were moved to a 7 day per week alcohol access schedule to allow for chronic daily treatment. Rats were then administered vehicle (4 consecutive days), Compound 1 (3 mg/kg, 7 consecutive days), then vehicle (4 consecutive days) according to an A-B-A experimental design for a total of 15 days. Access to alcohol was provided 1-hr after vehicle or Compound 1 injection. Alcohol and water intake were measured as described above after 1-hr and 24-hrs of access.

[2] = tested on: operant alcohol self-administration in Wistar rats; test: Operant alcohol self-administration (FR-1), acute treatment; assay type: in vivo; set-up: alcohol reinforced lever press responses: dose or concentration left out as unconfirmed; conditions: 1-h pretreatment
Description: Twelve operant conditioning chambers designed for rats (30.5 cm×24.1 cm×21.0 cm; Med Associates, Georgia, VT) were located within sound-attenuating cubicles in a devoted room to limit extraneous potential impact by extraneous environmental variables. Each cubicle was equipped with an exhaust fan that provided ventilation and masked external sounds. The chambers were electronically interfaced to a Microsoft Windows based computer that was programmed using investigator developed software to control sessions and record number of lever press responses at 100-ms intervals.
The right wall of each chamber contained a liquid receptacle and a response lever (Med Associates) that was termed the active lever. Lever press responses on the active lever activated a syringe pump (PHM-100, Med Associates) that delivered 0.1 ml of alcohol solution (ethanol 8% v/v+sucrose 2% w/v) into the receptacle over a 1.66-s period. Head entries into the liquid receptacle were recorded when an infrared photo beam was broken. A stimulus light located above the response lever was illuminated during pump activation. Lever presses during reinforcer delivery were recorded but produced no programmed consequence. […] Behavior on this lever serves as a control for motor disruptions and other nonspecific effects of test compounds. […]
Testing the efficacy of Compound 1 to reduce the reinforcing, or rewarding, effects of alcohol. Following establishment of stable baseline self-administration behavior, effects of pre-session treatment with the novel mGluR5 negative allosteric modulator Compound 1 (0, 0.3, 1, 3, and 10 mg/kg, IP) were evaluated on operant alcohol self-administration behavior (n=12 rats). […] Parameters of operant performance were measured, including total lever press responses, number of headpokes into the liquid receptacle, and rate of operant responding, which is a direct measure of positive reinforcement function. […]

## N#Cc1cc(Cl)cc(-c2cc(-c3ccc(F)cn3)ncn2)c1 [Compound 1, 3-chloro-5-[6-(5-fluoropyridin-2-yl)pyrimidin-4-yl]benzonitrile]
[1]; 3 mg/kg i.p. daily for 7 days
  H2O intake, 1-hr access, averaged across the 3 experimental phases: decreased water intake
  H2O intake, 24-hrs access, averaged across the experimental phases: reduction in H2O intake as compared to the first vehicle condition only
  alcohol intake, 24-hr access, averaged over each treatment condition: no effect
  average alcohol intake over the 7-day treatment phase, 1-hr access, vs Veh-1 and Veh-2: significantly decreased alcohol intake
[1]; 3 mg/kg i.p. daily, days 5-11
  H2O intake, 1-hr access, individual treatment days: failed to identify a significant change at a particular treatment day
  H2O intake, 24-hrs access, individual treatment days: significant reductions in H2O intake at days 7 and 11
  alcohol intake, 1-hr access, individual treatment days vs day 4 vehicle: reduced alcohol intake only on day 5
  alcohol intake, 24-hr access, individual treatment days vs day 4 vehicle: reduced alcohol intake only on day 5
[2]; 10 mg/kg IP
  EtOH reinforced responses vs vehicle, multiple comparisons: reduced EtOH reinforced responses
[2]; IP (so in the source), 15-min test sessions
  alcohol reinforced lever press responses: reduced alcohol reinforced lever press responses in a dose-dependent manner
